Data published in US20250115628A1, “FLUORINATED FLUOROPHORES” (HOWARD HUGHES MEDICAL INSTITUTE, priority 2023, published 2025).
Like-named read-outs stand apart in the source and are kept apart here.

Tests used:
[1] = test system: U2OS cells stably expressing HaloTag®-histone H2B fusion protein; assay: Loading experiments with NIR-excited HaloTag® ligands (nuclear fluorescence); format: cell-based; settings: 200 nM; live cells expressing HaloTag®-histone H2B
Description: U2OS cells (ATCC) and U2OS cells stably expressing an integrated HaloTag®-histone H2B fusion protein (U2OS·H2B·HaloTag®) were cultured in Dulbecco's modified Eagle medium (DMEM, phenol red-free; Life Technologies) supplemented with 10% (v/v) fetal bovine serum (FBS, Life Technologies), 1 mM GlutaMAX (Life Technologies) and maintained at 37° C. in a humidified 5% (v/v) CO2 environment. These cell lines undergo regular mycoplasma testing by the Janelia Cell Culture Facility. For mitochondrial imaging using the HaloTag® system, U2OS cells were transiently transfected using nucleofection (Lonza) with a plasmid constitutively expressing a HaloTag®-TOMM20 fusion protein, which is located on the outer mitochondrial membrane. For 4^−color imaging, U2OS·H2B·HaloTag® stable cells were transiently transfected by nucleofection with plasmids constitutively expressing a SNAP-tag®-TOMM20 fusion protein, and a GFP-SKL (SKL: serine-lysine-leucine) fusion protein, a prototypical peroxisomal matrix targeting signal. All labeled cells were imaged 18-24 h post-transfection or post-plating.
For loading curve experiments (FIG. 15C), U2OS·H2B·HaloTag® stable cells were incubated with 200 nM HaloTag® ligand conjugated dyes (31HTL, 36HTL, 38HTL, 104HTL, 106HTL, 107HTL, and 108HTL) for 0-4 h at 37° C., washed 3× with dye-free media then fixed with 4% paraformaldehyde in 0.1 M phosphate buffer, pH 7.4 for 15 min at 37° C. Confocal imaging was performed on a Leica Stellaris with an HC PL APO 40×/1.25 glycerol objective using the tunable white light laser (WLL) to excite dyes at their λabs in constant power mode. Fluorescence was quantified as the integrated density of nuclear signals in single-plane images analyzed in FIJI;^82 n=100 nuclear signals per compound.

[2] = General UV-vis and fluorescence spectroscopy; format: physicochemical; settings: rhodamine derivatives; 10 mM HEPES, pH 7.3
Description: Spectroscopy was performed using 1^−cm path length, 3.5^−mL quartz cuvettes or 1^−cm path length, 1.4^−mL semi-micro quartz cuvettes from Starna Cells. All measurements were taken at ambient temperature (22±2° C.). Absorption spectra were recorded on a Cary Model 100 spectrometer (Agilent), and fluorescence spectra were recorded on a Cary Eclipse fluorometer (Varian). The spectra, maximum absorption wavelength (labs), extinction coefficient at λabs (8), and maximum emission wavelength (em) were measured in 10 mM HEPES, pH 7.3 buffer (rhodamines and Malachite Green derivative 49) or 0.1 M NaOH (fluoresceins); the reported values for e are averages (n=3). Normalized spectra are shown for clarity.

[3] = Determination of KL-Z (lactone-zwitterion equilibrium constant); format: physicochemical; set-up: key: KL-Z = (εdw/εmax)/(1−εdw/εmax); εdw measured in 1:1 dioxane/water; settings: rhodamine derivatives; 1:1 dioxane:H2O
Description: KL-Z was calculated using the following equation:^16, 18 KL-Z=(εdw/εmax)/(1−εdw/εmax). εdw is the extinction coefficient of the dyes in a 1:1 (v/v) dioxane/water solvent mixture; this dioxane/water mixture was chosen to give the maximum spread of KL-Z values across all classes of rhodamines.^18 εmax refers to the maximal extinction coefficients measured in different solvent mixtures empirically determined depending on dye type: 0.1% v/v trifluoroacetic acid in ethanol for 18, 20, 29, 34, 36, 70-72, 81-83, 93-95, 99-102, and 104; 0.1% v/v trifluoroacetic acid in 2,2,2^−trifluoroethanol for all other rhodamine variants. A accurate determination of low KL-Z values is complicated by the relatively poor sensitivity of absorbance measurements.

[4] = test system: JM8·N4 mouse embryonic stem cells stably expressing histone H2B-HaloTag® fusion proteins; assay: Single-particle tracking (SPT) experiments; format: cell-based; settings: for performance in SPT experiments compared with 1HTL and 89HTL: HaloTag® ligands, 50 Hz imaging
Description: SPT experiments were carried out as previously described.^84 JM8·N4 mouse embryonic stem cells (ESCs) stably expressing histone H2B-HaloTag® fusion proteins were generated by co-expressing the PiggyBac EF1a-H2B-HaloTag®-IRES-Neo vector with the super piggyBac transposase as described previously,85 followed by G418 selection (500 μg/mL) for 2 weeks and verified by FACS sorting/confocal imaging staining with JF549-HaloTag® ligand (84HTL; 100 nM, 30 min). Cells were seeded on 25 mm #1.5 coverglass pre-cleaned with KOH and ethanol and coated with iMatrix-511 (TaKaRa #T304) or rhLaminin-521 (Gibco™ #A^29248) according to the manufacturers' instruction. All live-cell imaging experiments were conducted using an ESC imaging medium composed of FluoroBrite DMEM (ThermoFisher) plus 15% v/v ESC-qualified FBS, 1× GlutaMax, 1×NEAA, 0.1 mM 2^−mercaptoethanol, and LIF. For comparison of 59HTL and 89HTL (FIG. 13E, 13F) the histone H2B-HaloTag® ESCs were stained with 5 nM 59HTL for 1 h or 0.1 nM 89HTL for 15 min at 37° C. with 5% (v/v) CO2 to achieve sparse labeling with approximately equal localizations per region of interest (ROI), and then washed with dye-free media 3× for 30 min each wash For comparison of 40HTL, 44HTL, 1HTL, or 89HTL (FIG. 12A-12G) the histone H2B-HaloTag® ESCs were stained with 1 nM of HaloTag® ligands for 15 min at 37° C. with 5% (v/v) CO2 to achieve sparse labeling, and then washed with dye-free media 3× for 30 min each wash.
To quantify the brightness and photostability of the HaloTag® ligands, labeled cells were mounted onto a high speed motorized Nikon Eclipse Ti-E inverted microscope equipped with the following: 100× Apo TIRF 1.49 NA objective with a correction collar; four excitation laser lines (405/488/561/642 nm) and matching TIRF quad cube (405/488/561/640 nm reflection bands); automatic TIRF illuminator with motorized X axis and manual Y axis for beam positioning and focus: perfect focus 3 system; Triple DU-897 iXon Ultra EMCCD cameras on a Cairn Tri-cam emission splitter with filters 525/50 (GFP) 600/50 (RFP) and 705/72 (Cy5); humidified incubation chamber maintained at 37° C. with 5% v/v CO2 (Tokai Hit). SPT was performed at 100 Hz for the comparison of 59HTL and 89HTL (FIG. 13E, 13F) and 50 Hz for the comparison of 40HTL, 44HTL, 1HTL, or 89HTL (FIG. 12A-12G); the imaging session was performed for ˜5000 frames using 100% of maximal excitation power (˜120 mW at the fiber end before the TIRF unit). […] For the comparison of HaloTag® ligands 59HTL and 89HTL (FIG. 13E, 13F) and the comparison of compounds 40HTL, 44HTL, 1HTL, and […] (FIG. 12A-12G), the fluorophores were excited with a 647 nm laser. To minimize drift during imaging, the incubation chamber was fully thermally equilibrated, and all imaging was conducted in an isolated ultra-clean room with minimal mechanical vibrations. The microscope, laser lines, and camera integration were controlled using the Nikon NIS-Elements software. Cells with obvious movement during acquisition were removed from further analysis. SMT analysis was based on multiple target tracing 86 (MTT) with tracking parameters similar to previous work.^84 For SPT brightness (photon counts/molecule/s), intensity values from sparsely-labeled molecules were analyzed. For the comparison of HaloTag® ligands 59HTL and 89HTL (FIG. 13E, 13F): n=147,298 single-molecule events using 59HTL; n=100,392 single-molecule events using 89HTL. […]

[5] = Quantum yield determination; format: physicochemical; settings: rhodamine derivatives; 10 mM HEPES, pH 7.3
Description: All reported absolute fluorescence quantum yield values (Φf) were measured using a Quantaurus-QY spectrometer (model C11374, Hamamatsu). This instrument uses an integrating sphere to determine photons absorbed and emitted by a sample. Measurements were carried out using dilute samples (A<0.1), and self-absorption corrections were performed using the instrument software.^81

[6] = fluorescein derivatives; 0.1 N NaOH; data from the inventors' published work; cited from earlier work
[7] = Hill coefficient; data from the inventors' published work; cited from earlier work
[8] = fluorescein derivatives; 0.1 N NaOH; data from the inventors' published work; cited from earlier work; remark: listed apart in the source

Row | Molecule | cellular intensity [1] | Φf [6] | ηH [7] | ε [8] | λabs [8] | λem [8] | also measured
1 | CC1=CC(C)(C)Nc2cc3c(cc21)C(c1c(F)c(C(=O)NCCOCCOCCCCCCCl)c(F)c(F)c1C(=O)O)=c1cc2c(cc1[Si]3(C)C)=NC(C)(C)C=C2C [36HTL, 4^−((2^−(2^−((6^−Chlorohexyl)oxy)ethoxy)ethyl)carbamoyl)-2,3,5^−trifluoro-6-(2,2,4,8,10,10,13,13^−octamethyl-2,10,11,13^−tetrahydrosilino [3,2^−g:5,6^−g′]diquinolin-6^−ylium-6(1H)-yl)benzoate] | relatively low intensity | – | – | – | – | – | –
2 | CC1=CC(C)(C)N(C)c2cc3c(cc21)C(c1c(F)c(C(=O)NCCOCCOCCCCCCCl)c(F)c(F)c1C(=O)[O-])=c1cc2c(cc1[Si]3(C)C)=[N+](C)C(C)(C)C=C2C [38HTL, 4^−((2^−(2^−((6^−Chlorohexyl)oxy)ethoxy)ethyl)carbamoyl)-2^−(1,2,2,4,8,10,10,11,13,13-decamethyl-2,10,11,13^−tetra-hydrosilino[3,2^−g:5,6^−g′]diquinolin-6^−ylium-6(1H)-yl)-3,5,6-trifluorobenzoate] | relatively low intensity | – | – | – | – | – | –
3 | CC1=CC(C)(C)N(C)c2cc3c(cc21)C(c1cc(C(=O)NCCOCCOCCCCCCCl)ccc1C(=O)[O-])=c1cc2c(cc1[Si]3(C)C)=[N+](C)C(C)(C)C=C2C [104HTL, 4^−((2-(2^−((6^−Chlorohexyl)oxy)ethoxy)ethyl)carbamoyl)-2^−(1,2,2,4,8,10,10,11,13,13^−decamethyl-2,10,11,13^−tetra-hydrosilino[3,2^−g:5,6^−g′]diquinolin-6^−ylium-6(1H)-yl)benzoate] | relatively low intensity | – | – | – | – | – | –
4 | CN1CCc2cc3c(cc21)[Si](C)(C)c1cc2c(cc1=C3c1c(F)c(C(=O)NCCOCCOCCCCCCCl)c(F)c(F)c1C(=O)[O-])CC[N+]=2C [108HTL, SiRF712-HaloTag® ligand] | second highest cellular intensity | – | – | – | – | – | –
5 | [2H]C1([2H])N(c2ccc3c(c2)C(C)(C)C2=CC(=[N+]4C([2H])([2H])C([2H])([2H])C([2H])([2H])C4([2H])[2H])C=CC2=C3c2c(F)c(F)c(F)c(F)c2C(=O)[O-])C([2H])([2H])C([2H])([2H])C1([2H])[2H] [compound 40, JFX637] | – | – | – | – | – | – | ε [2]: 147,000 M^−1cm^−1; λabs [2]: 637 nm; KL-Z [3]: 6.12; performance in SPT experiments compared with 1HTL and 89HTL [4]: comparable performance; Φf [5]: 0.56
6 | CC1(C)C2=CC(=[N+]3CCC3)C=CC2=C(c2c(F)c(F)c(F)c(F)c2C(=O)[O-])c2ccc(N3CCC3)cc21 [compound 44, JF632] | – | – | – | – | – | – | ε [2]: 139,000 M^−1cm^−1; λabs [2]: 632 nm; λem [2]: 649 nm; KL-Z [3]: 3.59; performance in SPT experiments compared with 1HTL and 89HTL [4]: comparable performance; Φf [5]: 0.54
7 | CC1(C)c2cc(O)ccc2C2(OC(=O)c3ccccc32)c2ccc(O)cc21 [compound 74, carbofluorescein] | – | 0.62 | 1.65 | 108,000 M^−1cm^−1 | 544 nm | 567 nm | –
8 | C[Si]1(C)c2cc(O)ccc2C2(OC(=O)c3ccccc32)c2ccc(O)cc21 [compound 75] | – | 0.53 | 1.69 | 93,000 M^−1cm^−1 | 579 nm | 599 nm | –
9 | CC1(C)c2cc(O)c(F)cc2C2(OC(=O)c3ccccc32)c2cc(F)c(O)cc21 [compound 78, Virginia Orange] | – | 0.40 | 1.46 | 90,900 M^−1cm^−1 | 555 nm | 581 nm | –
10 | C[Si]1(C)c2cc(O)c(F)cc2C2(OC(=O)c3ccccc32)c2cc(F)c(O)cc21 [compound 79] | – | 0.42 | 1.30 | 60,900 M^−1cm^−1 | 596 nm | 618 nm | –
11 | C[Si]1(C)c2cc(O)c(F)cc2C2(OC(=O)c3c(F)c(F)c(F)c(F)c32)c2cc(F)c(O)cc21 [compound 80] | – | 0.32 | 1.50 | 67,900 M^−1cm^−1 | 617 nm | 635 nm | –
12 | JFX650-HaloTag® ligand [89HTL, reference compound] | – | – | – | – | – | – | SPT localizations over time ([4]; 100 Hz imaging): relatively rapid bleaching
